Results from the supplement of paper PMC10307832.

Assays:
Assay in all cases: relative viability (nuclei count vs DMSO), 5 days (fraction); higher = more cells survive
[1] = compound: CC1=CC=C(C=C1)C(=O)CN2C3=C(CCCC3)SC2=N [Pifithrin_alpha] + Nc1nc2[nH]cc(CCc3ccc(C(=O)N[C@@H](CCC(=O)O)C(=O)O)cc3)c2c(=O)[nH]1 [Pemetrexed] (partner 0.2 µM)
Method in brief: (§1)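 For relative viability, nuclei counts in treated wells were divided by those in vehicle wells. Lung cancer cell lines had been pin-tool dosed in 1536-well plates the day after seeding and cultured for 5 days, then fixed and stained in one step (final 0.05% Triton X-100, 1% formaldehyde, 1 ug/ml Hoechst) and imaged at 4×. Doses were one drug alone or a fixed anchor-drug dose plus five library-drug doses (not always all listed) in √10 steps, and values are duplicate-plate medians.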

Axitinib + AZD7762 = compound: CNC(=O)c1ccccc1Sc1ccc2c(/C=C/c3ccccn3)n[nH]c2c1 [Axitinib] + NC(=O)Nc1cc(-c2cccc(F)c2)sc1C(=O)N[C@H]1CCCNC1 [AZD7762] (partner 0.2 µM)
Method in brief: as §1

Bemcentinib + Foretinib = compound: Nc1nc(Nc2ccc3c(c2)CC[C@@H](N2CCCC2)CC3)nn1-c1cc2c(nn1)-c1ccccc1CCC2 [Bemcentinib] + COc1cc2c(Oc3ccc(NC(=O)C4(C(=O)Nc5ccc(F)cc5)CC4)cc3F)ccnc2cc1OCCCN1CCOCC1 [Foretinib] (partner 0.25 µM)
Method in brief: as §1

Bemcentinib + Dasatinib = compound: Nc1nc(Nc2ccc3c(c2)CC[C@@H](N2CCCC2)CC3)nn1-c1cc2c(nn1)-c1ccccc1CCC2 [Bemcentinib] + Cc1nc(Nc2ncc(C(=O)Nc3c(C)cccc3Cl)s2)cc(N2CCN(CCO)CC2)n1 [Dasatinib] (partner 0.075 µM)
Method in brief: as §1

Row | Cell Line | relative viability ([1]; first compound 1 µM) | relative viability ([1]; first compound 3.162 µM) | relative viability ([1]; first compound 10 µM) | relative viability ([1]; first compound 31.62 µM) | relative viability ([1]; first compound 100 µM) | relative viability (Axitinib + AZD7762; first compound 0.005 µM) | relative viability (Axitinib + AZD7762; first compound 0.01581 µM) | relative viability (Axitinib + AZD7762; first compound 0.05 µM) | relative viability (Axitinib + AZD7762; first compound 0.1581 µM) | relative viability (Axitinib + AZD7762; first compound 0.5 µM) | relative viability (Bemcentinib + Foretinib; first compound 0.04 µM) | relative viability (Bemcentinib + Foretinib; first compound 0.1265 µM) | relative viability (Bemcentinib + Foretinib; first compound 0.4 µM) | relative viability (Bemcentinib + Foretinib; first compound 1.265 µM) | relative viability (Bemcentinib + Foretinib; first compound 4 µM) | relative viability (Bemcentinib + Dasatinib; first compound 0.04 µM) | relative viability (Bemcentinib + Dasatinib; first compound 0.1265 µM) | relative viability (Bemcentinib + Dasatinib; first compound 0.4 µM) | relative viability (Bemcentinib + Dasatinib; first compound 1.265 µM) | relative viability (Bemcentinib + Dasatinib; first compound 4 µM)
1 | LC-2-ad | 0.307 | 0.256 | 0.293 | 0.263 | 0.251 | 0.845 | 0.845 | 0.834 | 0.841 | 0.952 | 0.881 | 0.964 | 1.01 | 0.927 | 0.969 | 0.308 | 0.597 | 0.659 | 0.669 | 0.557
2 | HCC-78 |  | 0.937 | 0.941 | 0.901 | 0.944 | 0.787 | 0.58 | 0.857 | 0.708 | 0.498 | 0.578 | 0.486 | 0.555 |  | 0.562 | 0.403 | 0.201 | 0.433 |  | 0.363
3 | NCI-H322M | 0.635 | 0.599 | 0.605 | 0.578 | 0.511 | 0.564 | 0.525 | 0.579 | 0.548 | 0.612 | 0.939 | 1.01 | 0.919 | 1.11 | 0.97 | 0.229 | 0.279 | 0.251 | 0.267 | 0.258
4 | NCI-H1651 | 0.211 | 0.632 | 0.553 | 0.539 | 0.666 | 0.466 | 0.416 | 0.481 | 0.467 | 0.533 | 0.824 | 0.928 | 0.812 | 0.856 | 1.14 | 0.393 | 0.381 | 0.484 | 0.41 | 0.498
5 | SW 900 | 0.493 | 0.509 | 0.499 | 0.503 | 0.371 | 0.52 |  | 0.562 | 0.579 | 0.66 | 0.827 | 0.948 | 0.976 | 1.05 | 0.974 | 0.587 | 0.672 | 0.586 | 0.493 | 0.563
6 | NCI-H1437 | 0.337 | 0.313 | 0.309 | 0.258 | 0.253 | 1.14 | 1.13 | 1.07 | 1.08 | 1.03 | 1.28 | 1.26 | 1.33 | 1.21 | 1.3 | 0.365 | 0.421 | 0.416 | 0.438 | 0.38
7 | NCI-H1355 | 0.977 | 0.972 | 0.764 | 0.686 | 0.677 | 0.799 | 0.833 | 0.845 | 0.769 | 0.735 | 0.958 | 1.12 | 1.03 | 1.04 | 0.98 | 0.723 | 0.778 | 0.829 | 0.778 | 0.841
8 | NCI-H2342 | 0.628 | 0.741 | 0.729 | 0.855 | 0.782 | 0.554 | 0.437 | 0.688 | 0.513 | 0.429 | 1.04 | 1.12 | 1.09 | 1.06 | 1.13 | 0.316 | 0.318 | 0.313 | 0.264 | 0.308
9 | NCI-H1755 | 0.417 | 0.445 | 0.381 | 0.342 | 0.446 | 0.509 | 0.435 | 0.454 | 0.524 | 0.47 | 0.925 | 0.923 | 0.947 | 0.987 | 0.935 | 0.379 | 0.511 | 0.397 | 0.438 | 0.41
10 | NCI-H2126 | 0.448 | 0.656 | 0.625 | 0.56 | 0.643 | 0.936 | 0.997 | 0.996 | 0.97 | 1.01 | 1.25 | 1.43 | 1.37 | 1.13 | 1.23 | 0.559 | 0.67 | 0.646 | 0.71 | 0.699
11 | NCI-H1793 | 0.538 | 0.79 | 0.888 | 0.671 | 0.695 | 0.514 | 0.394 | 0.565 | 0.304 | 0.486 | 0.816 | 0.726 | 0.772 |  | 0.693 | 0.305 | 0.412 | 0.342 |  | 0.405
12 | HOP-62 | 0.209 | 0.4 | 0.38 | 0.304 | 0.441 | 0.654 | 0.548 | 0.592 | 0.728 | 0.97 | 1.22 | 1.14 | 1.01 | 1.06 | 1.21 | 0.639 | 0.656 | 0.768 | 0.552 | 0.718
13 | NCI-H1395 |  | 0.897 | 0.907 |  | 0.908 | 0.4 | 0.378 | 0.386 | 0.405 | 0.386 | 0.994 | 1.05 | 1.04 | 0.934 | 1.05 | 0.393 | 0.392 | 0.439 | 0.364 | 0.396
14 | NCI-H2347 | 0.406 | 0.416 | 0.441 | 0.485 | 0.447 | 0.828 | 0.763 | 0.792 | 0.723 | 0.873 | 0.831 | 0.847 | 0.891 | 0.834 | 0.763 | 0.322 | 0.288 | 0.327 | 0.269 | 0.308
15 | HCC-15 | 0.225 | 0.206 | 0.207 | 0.206 | 0.209 | 1.36 | 1.13 | 1.35 | 1.14 | 1.18 | 1.11 | 1.18 | 1.11 | 1.04 | 1.11 | 0.628 | 0.696 | 0.708 | 0.669 | 0.732
16 | PC-14 | 0.143 | 0.121 | 0.133 | 0.0962 | 0.0885 | 0.306 |  | 0.346 | 0.382 | 0.413 | 1.07 | 0.907 | 1 | 0.959 | 1.02 | 0.236 | 0.259 | 0.249 | 0.224 | 0.236
17 | NCI-H2085 | 0.945 | 0.819 | 0.888 | 0.835 | 0.713 | 1.04 | 0.908 | 1.03 | 0.983 | 0.952 | 1.08 | 1.11 | 0.915 | 1.01 | 0.889 | 0.224 | 0.195 | 0.258 | 0.256 | 0.294
18 | HCC-827 | 0.251 | 0.256 | 0.27 | 0.239 | 0.205 | 0.195 | 0.129 | 0.176 | 0.212 | 0.214 | 1.13 | 1.05 | 1.08 | 1.09 | 1.08 | 0.305 | 0.385 | 0.273 | 0.4 | 0.3
19 | ChaGo-K-1 | 0.251 | 0.252 | 0.27 | 0.263 | 0.249 | 0.912 | 0.862 | 0.908 | 0.868 | 0.886 | 0.93 | 1.04 | 0.899 | 0.951 | 0.906 | 0.591 | 0.614 | 0.636 | 0.496 | 0.481
20 | H3255 | 0.507 | 0.533 | 0.537 | 0.532 | 0.505 | 0.841 | 0.734 | 0.891 | 0.915 | 0.879 | 0.897 | 0.857 | 0.766 | 0.892 | 0.724 | 0.308 | 0.396 | 0.315 | 0.332 | 0.346
21 | LOU-NH91 | 0.398 | 0.362 | 0.307 | 0.332 | 0.359 | 0.806 | 0.723 | 0.814 | 0.761 | 0.78 | 0.891 | 0.895 | 0.933 | 1.02 | 0.988 | 0.508 | 0.568 | 0.59 | 0.335 | 0.61
22 | LK-2 | 0.188 | 0.288 | 0.244 |  | 0.327 | 0.385 | 0.335 | 0.279 | 0.447 | 0.307 | 1.51 |  | 1.29 | 1.35 | 1.49 | 0.248 | 0.246 | 0.31 | 0.27 | 0.349
23 | EPLC-272H | 0.444 | 0.3 | 0.249 | 0.295 | 0.382 | 0.245 | 0.165 | 0.269 | 0.234 | 0.197 | 0.639 | 0.899 | 0.712 | 0.839 | 0.988 | 0.285 | 0.389 | 0.332 | 0.393 | 0.364
24 | NCI-H441 | 0.297 | 0.248 | 0.235 |  | 0.244 | 1.08 | 1.02 | 1.24 | 1.09 | 1.59 | 1.16 | 1.05 | 0.892 | 0.917 | 0.875 | 0.536 | 0.773 | 0.862 | 0.649 | 0.609
25 | NCI-H23 | 0.679 | 0.609 | 0.734 | 0.479 | 0.547 | 0.328 | 0.216 | 0.23 | 0.241 | 0.288 | 0.916 | 1.2 | 1.15 | 1.09 | 1.08 | 0.476 | 0.884 | 0.985 | 0.632 | 0.828
26 | NCI-H647 | 0.166 | 0.164 | 0.197 | 0.156 | 0.162 | 0.449 | 0.32 | 0.583 | 0.36 | 0.539 | 1.33 | 1.22 | 1.24 | 1.49 | 1.2 | 0.169 | 0.213 | 0.211 | 0.186 | 0.136
27 | LXF-289 | 0.908 | 0.985 | 0.921 | 0.767 | 0.943 | 1.16 | 1.06 | 1.11 | 1.06 | 1.18 | 0.959 | 1.06 | 0.976 | 0.983 | 0.994 | 0.206 | 0.178 | 0.212 | 0.241 | 0.187
28 | NCI-H596 | 0.523 | 0.468 | 0.513 | 0.498 | 0.483 | 1.14 | 0.978 | 1.12 | 1.12 | 0.943 | 0.84 | 0.848 | 0.974 | 0.799 | 0.94 | 0.454 | 0.604 | 0.575 | 0.593 | 0.627
